Results: patent US20110091577A1, “DRUG RELEASE COATINGS ON CALCUIM PHOSPHATE AND USES THEREOF” (priority 2008, published 2011)

Key:
[1] = Gentamicin release study, parallel release reactions in PBS buffer; format: physicochemical; conditions: FIG. 2A; 6.0 mg solid in 1.50 mL PBS, 37° C., pH 7.4
Procedure: Gentamicin and vancomycin loading and release are presented for a homopolymer system where the antibiotic gentamicin or vancomycin is bound to hydroxyapatite (HA) using commercially available poly-L-glutamate. This corresponds to the schematic illustrated in FIG. 1A. The experiment consisted of producing gentamicin or vancomycin adsorbed on poly-L-glutamate coated hydroxyapatite, and measuring the drug's rate of release into phosphate-buffered saline at 20° C. or 37° C. and pH 7.4, relative to a drug/hydroxyapatite control without the polymer. Gentamicin release study—Parallel release reactions: Gentamicin release rates from the experimental sample (G/pgHA) and control (G/HA) were measured by running multiple release reactions of each in parallel and stopping the reactions at different times. In each release sample 6.0 mg of solid was mixed in 1.50 mL of PBS buffer in an Eppendorf tube in a 37° C. shaker bath. Samples were removed from the bath at 15 minute intervals, centrifuged for 30 seconds, and the supernatant saved for later analysis.

[2] = test system: staphylococci; conditions: literature value (de Neeling et al., 1998); cited from earlier work

gentamicin
time for adsorbed gentamicin to reach equilibrium with the buffer [1]: within one hour
minimum inhibitory concentration required to kill staphylococci [2]: 4 µg/mL
